Test results: patent US20040171073A1, “Compounds for modulation of cholesterol transport” (Massachusetts Institute of Technology, priority 2002, published 2004)

Target: T1, murine SR-BI (Mus musculus, UniProt Q61009)
T1 construct: expressed in transfected cells; host or cells: ldlA-7 (LDL receptor deficient Chinese hamster ovary cells)
T1 sequence (Q61009 1-509): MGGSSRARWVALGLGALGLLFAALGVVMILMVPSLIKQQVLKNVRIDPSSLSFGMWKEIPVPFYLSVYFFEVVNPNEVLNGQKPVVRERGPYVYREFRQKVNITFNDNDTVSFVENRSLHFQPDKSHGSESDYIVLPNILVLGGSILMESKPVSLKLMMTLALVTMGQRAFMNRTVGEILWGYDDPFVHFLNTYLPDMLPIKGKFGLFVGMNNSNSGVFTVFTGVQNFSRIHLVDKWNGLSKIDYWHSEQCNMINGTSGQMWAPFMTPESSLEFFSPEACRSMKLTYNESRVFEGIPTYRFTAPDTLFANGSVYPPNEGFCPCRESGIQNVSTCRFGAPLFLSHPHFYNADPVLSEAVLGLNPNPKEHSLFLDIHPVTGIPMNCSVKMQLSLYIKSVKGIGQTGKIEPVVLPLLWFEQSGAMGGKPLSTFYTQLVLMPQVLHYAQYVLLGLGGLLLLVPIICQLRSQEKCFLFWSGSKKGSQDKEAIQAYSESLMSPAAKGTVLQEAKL
Assay: Uptake of DiI from DiI-HDL by ldlA[mSR-BI] cells (high throughput screen and concentration dependence)
Type: cell-based

| Compound | ENDOHDL Test 1 | ENDOHDL Test 2 |
| --- | --- | --- |
| Cc1cccc(N2C(=O)CN(C3CCOCC3)C2=O)c1 [MIT 9952-2] | 1.34 | 1.2 |
| O=C1CC(N2CCOCC2)C(=O)N1c1ccc(Br)cc1 (stereo not shown) [MIT 9952-3] | 1.32 | 1.17 |
| CC(=O)Oc1ccc2ccccc2c1C=O [MIT 9952-13] | 0.55 | 0.67 |
| COc1ccc2nc(C(=O)[O-])sc2c1.[Na+] [MIT 9952-14] | 1.24 | 1.21 |
| Nc1nc(-c2ccccc2)nc2sc3c(c12)CCCC3 [MIT 9952-15] | 0.55 | 0.61 |
| COc1ccc(N2C(=O)CC(N3CCCCC3)C2=O)cc1 (stereo not shown) [MIT 9952-16] | 1.25 | 1.26 |
| O=C1CC(N2CCOCC2)C(=O)N1c1ccc(Br)cc1 (stereo not shown) [MIT 9952-17] | 1.32 | 1.17 |
| Cl.NCCc1nc2ccccc2[nH]1 [MIT 9952-25] | 1.21 | 1.69 |
| CCCCN1CCC(Cl)(c2ccccc2)C(C(=O)c2ccccc2)C1 (stereo not shown) [MIT 9952-26] | 1.28 | 1.32 |
| COc1ccc(COCC(Cl)CN2CCCCC2)cc1OC.Cl (stereo not shown) [MIT 9952-40] | 1.28 | 1.23 |
| O=C(CC1=CCCCC1)Nc1cc([N+](=O)[O-])ccc1Cl [MIT 9952-46] | 1.32 | 1.18 |
| O=C(O)c1cc(C(=O)O)nc(C(=O)O)c1 [MIT 9952-60] | 1.13 | 1.17 |
| CCN(CC(O)COc1ccccc1C(C)=O)S(=O)(=O)O.[Na+] (stereo not shown) [MIT 9952-62] | 1.28 | 1.24 |
| O=C(/C=C/C=C(Cl)Cl)c1ccc2c(c1)OCO2 [MIT 9952-65] | 1.29 | 1.24 |
| O=C(CSC1=NCCN1)Nc1ccccc1 [MIT 9952-67] | 0.55 | 0.54 |
| Cc1cc(C)c(/C=N/N=C/c2c(C)cc(C)cc2C)c(C)c1 [MIT 9952-69] | 1.18 | 1.32 |
| CN(CC#CC(O)(c1ccccc1)c1ccccc1)C1CCCCC1 [MIT 9952-72] | 1.07 | 1.12 |
| CCNc1ccc(N)c(C)c1C.O=S(=O)(O)O [MIT 9952-74] | 0.71 | 0.69 |
| C/C(=C\C(=O)NCCc1c[nH]c2ccccc12)C(=O)O [MIT 9952-76] | 1.25 | 1.26 |
| COC(=O)Nc1cc([N+](=O)[O-])cc([N+](=O)[O-])c1Br [MIT 9952-79] | 0.61 | 0.63 |
| Cc1cccc(N2C(=O)CC(N3CCOCC3)C2=O)c1 (stereo not shown) [MIT 9952-80] | 1.34 | 1.2 |
| O=C1CC(N2CCOCC2)C(=O)N1c1ccc(Br)cc1 (stereo not shown) [MIT 9952-81] | 1.32 | 1.17 |
| Cc1nc(O)c(C(c2cc([N+](=O)[O-])ccc2O)c2c(O)nc(C)nc2O)c(O)n1 [MIT 9952-82] | 1.27 | 1.4 |
| O=C(O)CSC1CCCC/C1=N\Nc1ccc([N+](=O)[O-])cc1[N+](=O)[O-] (stereo not shown) [MIT 9952-84] | 0.74 | 0.66 |
| CSc1sc(SC)c(C[n+]2ccccc2)c1C[n+]1ccccc1.[I-].[I-] [MIT 9952-85] | 0.56 | 0.68 |
| CCn1c(/C=C/C=C2\SCCN2C)[n+](CC)c2cc(Cl)ccc21 [MIT 9952-92] | 0.7 | 0.63 |

Now from value to compound:

| ENDOHDL Test 1 | ENDOHDL Test 2 | Compound |
| --- | --- | --- |
| 1.17 | 1.33 | O=C(Cl)c1ccccc1NS(=O)(=O)/C=C/c1ccccc1 [MIT 9952-4] |
| 0.5 | 0.51 | O=C(/C=C/c1ccccc1)NC(NC(=S)Nc1cccc([N+](=O)[O-])c1)C(Cl)(Cl)Cl (stereo not shown) [MIT 9952-7] |
| 1.25 | 1.26 | CC(CC(=O)NCCc1c[nH]c2ccccc12)C(=O)Cl (stereo not shown) [MIT 9952-12] |
| 1.21 | 1.22 | O=C(Cl)CCNC(=O)c1ccccc1 [MIT 9952-18] |
| 1.27 | 1.4 | Cc1nc(Cl)c(C(c2cc([N+](=O)[O-])ccc2Cl)c2c(Cl)nc(C)nc2Cl)c(Cl)n1 [MIT 9952-22] |
| 1.33 | 1.17 | O=C(COc1ccc(Cl)cc1)N/N=C/c1ccc(Cl)cc1 [MIT 9952-31] |
| 0.56 | 0.56 | O=C(Nc1ccc(C2Nc3ccc(SC(=O)c4ccc(Cl)cc4)c(Cl)c3S2)cc1)c1ccc(Cl)cc1 (stereo not shown) [MIT 9952-35] |
| 0.34 | 0.52 | Cc1cc(C(=O)N/C=C\c2c(Cl)ccc3ccccc23)[nH]n1 [MIT 9952-38] |
| 1.27 | 1.21 | O=C(Cl)c1ccc2c(c1)C(=O)N(c1ccc(-c3ccnc(-c4ccc(N5C(=O)c6ccc(C(=O)Cl)cc6C5=O)cc4)n3)cc1)C2=O [MIT 9952-42] |
| 0.44 | 0.46 | O=C(Nc1ccc(Cl)cc1C(=O)c1ccc(Cl)cc1)c1cc(Cl)ccc1NS(=O)(=O)c1ccc(Cl)cc1 [MIT 9952-45] |
| 1.18 | 1.37 | CC(C)(C)c1ccc(C(=O)Nc2ccccc2C(=O)Cl)cc1 [MIT 9952-47] |
| 0.68 | 0.49 | CC(C)(C)c1ccc(C(=O)Nc2ccccc2C(=O)O)cc1 [MIT 9952-48] |
| 1.26 | 1.26 | C=C(N/N=C(\C)c1ccccc1C(=O)O)c1ccccc1 [MIT 9952-56] |
| 1.13 | 1.25 | CCS(=O)(=O)C(=C(Nc1ccc(OC)cc1)Nc1ccc(OC)cc1)S(=O)(=O)CC [MIT 9952-57] |
| 0.35 | 0.44 | [O-][n+]1onc2c3cc(-c4ccccc4)[nH]c3ccc21 [MIT 9952-59] |
| 0.58 | 0.58 | NSCc1nc(-c2ccc(Cl)cc2)no1 [MIT 9952-64] |
| 0.62 | 0.55 | CCOC(=O)c1c(C)n(-c2ccccc2)c2ccc(NS(=O)(=O)c3ccccc3)cc12 [MIT 9952-71] |
| 0.61 | 0.59 | CCOC(=O)c1c(C)n(-c2ccc(C)cc2)c2ccc(O)cc12 [MIT 9952-73] |
| 0.64 | 0.71 | O=C(C[n+]1ccc(CCSC2Cc3cccc4cccc2c34)cc1)c1ccc([N+](=O)[O-])cc1 (stereo not shown) [MIT 9952-75] |
| 0.67 | 0.67 | O=C(N/N=C/c1ccc(O)cc1)C1CC1(c1ccccc1)c1ccccc1 (stereo not shown) [MIT 9952-87] |
| 0.73 | 0.77 | COc1ccc(/C=C2/S/C(=N/c3ccccc3)NC2=O)c(OC)c1 [MIT 9952-88] |
| 0.62 | 0.61 | O=C(NC(NC(=S)Nc1cc(C(F)(F)F)ccc1Cl)C(Cl)(Cl)Cl)c1ccco1 (stereo not shown) [MIT 9952-90] |
| 0.66 | 0.71 | COc1ccc(/C(C)=N/NC(=O)C2CC2(c2ccccc2)c2ccccc2)c(OC)c1 (stereo not shown) [MIT 9952-93] |
| 1.21 | 1.22 | O=C(O)CCNC(=O)c1ccccc1 [MIT 9952-94] |
